# Data reported in US7893203B2, “Protein involved in G protein-coupled receptor mediated signal transduction with ability to mediate signal transduction from a dopamine D1 receptor or an adenosine A2A receptor to an adenylate cyclase and utilization thereof” (Sumitomo Chemical Company, Ltd., priority 2002, dated 2011).
# Target: T1, adenosine A2a receptor (Homo sapiens, UniProt P29274)
# T1 construct: expressed in transfected cells; host or cells: CHO cells, transient lipofection
# Assay: Screening of adenosine A2a receptor antagonist using change in cAMP level as index
# Type: cell-based
# Details: 10 μM test substance with 10 μM adenosine, CHO cells with A2a receptor and Gm1, cAMP level
# Procedure: Then, 10 μM of adenosine as a GPCR ligand and 10 μM of a test substance (DMPX) were added and incubated at 37° C. for 30 minutes.
# A substance which gave a cAMP level percentage of 85% or less upon contact of the cell with the ligand and the test substance was selected as a signal transduction inhibitor (antagonist), on the basis of the cAMP level with no contact being 0% and the cAMP level with the contact of the cell only with the ligand being 100% (FIG. 4).
# T1 sequence (P29274 whole entry): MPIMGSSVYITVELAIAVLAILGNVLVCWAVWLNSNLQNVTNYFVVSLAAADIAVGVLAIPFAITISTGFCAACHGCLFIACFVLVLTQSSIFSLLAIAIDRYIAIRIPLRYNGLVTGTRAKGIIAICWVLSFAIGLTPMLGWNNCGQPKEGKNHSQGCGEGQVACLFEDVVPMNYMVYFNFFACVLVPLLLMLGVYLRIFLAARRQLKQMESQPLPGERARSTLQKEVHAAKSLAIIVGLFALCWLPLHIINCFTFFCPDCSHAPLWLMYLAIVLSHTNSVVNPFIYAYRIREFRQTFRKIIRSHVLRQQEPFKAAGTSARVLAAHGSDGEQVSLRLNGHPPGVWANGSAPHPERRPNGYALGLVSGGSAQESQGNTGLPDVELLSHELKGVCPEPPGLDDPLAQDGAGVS
smiles,measurement,value
C#CCn1c(=O)c2c(ncn2C)n(C)c1=O [DMPX],adenosine A2a receptor antagonistic effects (FIG. 4),antagonistic effects
